Here are results for 31 compounds from patent US7135466B2 (Kirin Beer Kabushiki Kaisha, priority 1999, dated 2006).

As a reminder, the IC50 is the midpoint of a concentration-inhibition curve. As usually defined, the inhibition is the share of the control response that was lost under treatment.

SMILES strings stand for the structures.

Assay [1] deals with T1, c-kit (Homo sapiens, UniProt P10721).
T1 construct: MO7e (human megakaryocytic leukemia cell line) which had been arrested for 20 hr; endogenous in cells; host or cells: MO7e human megakaryocytic leukemia cell line
Put plainly: Inhibitory activity against c-kit autophosphorylation (MO7e cells, h-SCF). It counts as cell-based. The note with it: for IC50: MO7e cells, h-SCF 50 ng/ml, read-out: c-kit IC50. The method in brief:
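Ligand-induced c-kit tyrosine phosphorylation is measured in MO7e cells that were quiesced 20 hr and preincubated with compound for 1 hr prior to a 5 min pulse of 50 ng/ml human SCF. Phospho-c-kit is detected by anti-phosphotyrosine capture ELISA, A450.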

Assay [2] deals with T2, PDGF-Ra (Homo sapiens, UniProt P16234).
T2 construct: host or cells: G-292 human osteosarcoma cells
In words: Inhibitory activity against PDGF-Ra phosphorylation by PDGF-AA stimulation using G292. It counts as cell-based. The note with it: for IC50: Pharmacological Test Example 1, > means inhibition at indicated concentration not more than 50%, < and << not less than 50%, read-out: PDGF (E) IC50; for inhibition at 0.1 µM: G292, figure in parentheses in >100( ), at 100 nM, read-out: PDGF (E) inhibition (%) at 100 nM. In outline:
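In G-292 osteosarcoma cells kept overnight in 0.1% FBS, compound exposure (1 hr, 37 °C) preceded PDGF-AA stimulation at 50 ng/ml for 5 min; receptor phosphotyrosine was then detected by PY-20 capture ELISA.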

T1 sequence (P10721 26-976): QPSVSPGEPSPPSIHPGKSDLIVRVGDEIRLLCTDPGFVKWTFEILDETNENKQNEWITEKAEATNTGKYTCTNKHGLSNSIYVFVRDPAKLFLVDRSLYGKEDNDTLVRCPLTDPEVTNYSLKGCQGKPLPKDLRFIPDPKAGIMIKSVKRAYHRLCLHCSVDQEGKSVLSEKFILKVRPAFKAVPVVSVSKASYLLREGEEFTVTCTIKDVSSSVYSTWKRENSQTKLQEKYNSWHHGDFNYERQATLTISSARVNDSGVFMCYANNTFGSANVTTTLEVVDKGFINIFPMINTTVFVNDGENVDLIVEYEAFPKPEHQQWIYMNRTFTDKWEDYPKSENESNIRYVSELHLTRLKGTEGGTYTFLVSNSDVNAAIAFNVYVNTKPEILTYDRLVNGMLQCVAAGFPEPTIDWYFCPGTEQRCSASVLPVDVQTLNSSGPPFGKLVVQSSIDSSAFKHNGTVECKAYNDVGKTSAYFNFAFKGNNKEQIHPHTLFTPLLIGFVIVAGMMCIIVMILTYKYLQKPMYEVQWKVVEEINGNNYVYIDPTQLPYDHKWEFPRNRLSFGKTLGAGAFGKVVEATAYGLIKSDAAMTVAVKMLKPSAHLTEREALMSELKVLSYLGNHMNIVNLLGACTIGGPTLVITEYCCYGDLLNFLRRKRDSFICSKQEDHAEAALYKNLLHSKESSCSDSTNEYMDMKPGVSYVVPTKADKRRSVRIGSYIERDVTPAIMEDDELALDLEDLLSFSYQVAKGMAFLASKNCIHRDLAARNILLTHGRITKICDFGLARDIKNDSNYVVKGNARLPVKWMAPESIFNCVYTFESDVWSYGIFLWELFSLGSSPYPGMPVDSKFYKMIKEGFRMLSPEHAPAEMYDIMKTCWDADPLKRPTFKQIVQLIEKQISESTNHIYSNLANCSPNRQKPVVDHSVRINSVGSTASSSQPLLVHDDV
T2 sequence (P16234 24-1089): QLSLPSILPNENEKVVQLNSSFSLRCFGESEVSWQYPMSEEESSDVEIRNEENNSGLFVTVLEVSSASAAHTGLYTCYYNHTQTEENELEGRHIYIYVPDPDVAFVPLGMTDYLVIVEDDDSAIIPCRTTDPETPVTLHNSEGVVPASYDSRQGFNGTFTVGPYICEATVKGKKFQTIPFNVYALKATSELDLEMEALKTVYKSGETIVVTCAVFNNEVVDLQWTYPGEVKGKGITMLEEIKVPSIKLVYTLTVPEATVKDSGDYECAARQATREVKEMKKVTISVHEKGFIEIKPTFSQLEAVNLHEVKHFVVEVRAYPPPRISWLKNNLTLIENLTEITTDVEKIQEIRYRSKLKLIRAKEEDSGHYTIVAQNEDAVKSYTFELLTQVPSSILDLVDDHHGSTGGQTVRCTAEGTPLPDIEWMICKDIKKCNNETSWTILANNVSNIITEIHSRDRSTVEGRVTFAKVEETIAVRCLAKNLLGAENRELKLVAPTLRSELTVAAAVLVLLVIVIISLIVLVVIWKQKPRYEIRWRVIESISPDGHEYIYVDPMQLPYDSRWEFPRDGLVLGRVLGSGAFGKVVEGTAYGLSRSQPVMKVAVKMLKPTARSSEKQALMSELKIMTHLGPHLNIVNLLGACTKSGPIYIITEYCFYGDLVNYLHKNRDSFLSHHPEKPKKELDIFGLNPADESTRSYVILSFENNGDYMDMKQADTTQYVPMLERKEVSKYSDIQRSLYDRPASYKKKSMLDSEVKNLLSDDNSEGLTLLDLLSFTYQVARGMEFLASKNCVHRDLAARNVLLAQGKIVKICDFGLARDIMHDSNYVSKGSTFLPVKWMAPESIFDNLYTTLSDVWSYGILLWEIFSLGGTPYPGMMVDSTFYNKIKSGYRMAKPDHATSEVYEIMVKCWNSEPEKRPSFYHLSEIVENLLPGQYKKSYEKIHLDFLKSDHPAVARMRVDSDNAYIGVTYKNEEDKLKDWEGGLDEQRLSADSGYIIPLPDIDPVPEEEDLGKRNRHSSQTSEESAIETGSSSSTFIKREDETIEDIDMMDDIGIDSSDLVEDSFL

With `CCC(OC(=O)Nc1ccc(Oc2ccnc3cc(OC)c(OC)cc23)cc1)c1ccccc1` (stereo not shown) [Example 263, 1-Phenylpropyl N-{4-[(6,7-dimethoxy-4-quinolyl)oxy]phenyl}carbamate], the IC50 worked out at 329 nM in assay [1] and 10 nM in assay [2].
`CCC(OC(=O)Nc1cc(C)c(Oc2ccnc3cc(OC)c(OC)cc23)cc1C)c1ccccc1` (stereo not shown) [Example 264, 1-Phenylpropyl N-{4-[(6,7-dimethoxy-4-quinolyl)oxy]-2,5-dimethylphenyl}carbamate]: the IC50 in assay [1] was found to be 486 nM; in assay [2], 42 nM.
With `CCC(OC(=O)Nc1ccc(Oc2ccnc3cc(OC)c(OC)cc23)c(C)c1C)c1ccccc1` (stereo not shown) [Example 265, 1-Phenylpropyl N-{4-[(6,7-dimethoxy-4-quinolyl)oxy]-2,3-dimethylphenyl}carbamate], the values for the IC50 in assay [1] and in assay [2] were 122 nM and 35 nM, respectively.
As for `COc1cc2nccc(Oc3ccc(NC(=O)Oc4c(C)cccc4C)cc3)c2cc1OC` [Example 269, 2,6-Dimethylphenyl N-{4-[(6,7-dimethoxy-4-quinolyl)oxy]phenyl}carbamate], the inhibition at 1 µM in assay [1] (Mo7e, figure in parentheses in −( ), at 1000 nM) stood at 48%. Moreover, the half-maximal inhibitory concentration (IC50) in assay [2] was determined as 17 nM.
As to `COc1cc2nccc(Oc3cc(C)c(NC(=O)Oc4c(C)cccc4C)cc3C)c2cc1OC` [Example 270, 2,6-Dimethylphenyl N-{4-[(6,7-dimethoxy-4-quinolyl)oxy]-2,5-dimethylphenyl}carbamate], the IC50 in assay [1] was 471 nM; in assay [2] it was 65 nM.
Take `COc1cc2nccc(Oc3ccc(NC(=O)Oc4c(C)cccc4C)c(C)c3C)c2cc1OC` [Example 271, 2,6-Dimethylphenyl N-(4-[(6,7-dimethoxy-4-quinolyl)oxy]-2,3-dimethylphenyl}carbamate]: the IC50 was determined as 130 nM in assay [1] and 22 nM in assay [2].
With `CCCCc1ccc(OC(=O)Nc2cc(C)c(Oc3ccnc4cc(OC)c(OC)cc34)cc2C)cc1` [Example 272, 4-Butylphenyl N-{4-[(6,7-dimethoxy-4-quinolyl)oxy]-2,5-dimethylphenyl}carbamate], the IC50 in assay [1] was 297 nM; in assay [2], 61 nM.
With `CCCCc1ccc(OC(=O)Nc2ccc(Oc3ccnc4cc(OC)c(OC)cc34)c(C)c2C)cc1` [Example 273, 4-Butylphenyl N-{4-[(6,7-dimethoxy-4-quinolyl)oxy]-2,3-dimethylphenyl}carbamate], the IC50 worked out at 107 nM in assay [1] and 23 nM in assay [2].
In the case of `COc1cc2nccc(Oc3cc(C)c(NC(=O)Oc4ccc(C(C)(C)C)cc4)cc3C)c2cc1OC` [Example 274, 4-(Tert-butyl)phenyl N-{4-[(6,7-dimethoxy-4-quinolyl)oxy]-2,5-dimethylphenyl}carbamate], the IC50 in assay [1] was determined as 399 nM; in assay [2], 25 nM.
With `COc1cc2nccc(Oc3ccc(NC(=O)Oc4ccc(C(C)(C)C)cc4)c(C)c3C)c2cc1OC` [Example 275, 4-(Tert-butyl)phenyl N-{4-[(6,7-dimethoxy-4-quinolyl)oxy]-2,3-dimethylphenyl}carbamate], the figures for the IC50 in assay [1] and in assay [2] were 103 nM and 16 nM, respectively.
Consider `CCCC(CC)OC(=O)Nc1cc(C)c(Oc2ccnc3cc(OC)c(OC)cc23)cc1C` (stereo not shown) [Example 276, 1-Ethylbutyl N-{4-[(6,7-dimethoxy-4-quinolyl)oxy]-2,5-dimethylphenyl}carbamate], for which the IC50 came to 413 nM in assay [1] and 16 nM in assay [2].
As for `CCCC(CC)OC(=O)Nc1ccc(Oc2ccnc3cc(OC)c(OC)cc23)c(C)c1C` (stereo not shown) [Example 277, 1-Ethylbutyl N-{4-[(6,7-dimethoxy-4-quinolyl)oxy]-2,3-dimethylphenyl}carbamate], the IC50 in assay [1] worked out at 53 nM; in assay [2], 10 nM.
Turning to `COc1cc2nccc(Oc3cc(C)c(NC(=O)Oc4ccccc4OC)cc3C)c2cc1OC` [Example 278, 2-Methoxyphenyl N-{4-[(6,7-dimethoxy-4-quinolyl)oxy]-2,5-dimethylphenyl}carbamate], the IC50 in assay [1] was 289 nM; in assay [2], 53 nM.
For `COc1cc2nccc(Oc3ccc(NC(=O)Oc4ccccc4OC)c(C)c3C)c2cc1OC` [Example 279, 2-Methoxyphenyl N-{4-[(6,7-dimethoxy-4-quinolyl)oxy]-2,3-dimethylphenyl}carbamate], in that order: less than 30 nM and less than 10 nM.
On to `COc1cc2nccc(Oc3ccc(NC(=O)Oc4c(OC)cccc4OC)cc3)c2cc1OC` [Example 280, 2,6-Dimethoxyphenyl N-{4-[(6,7-dimethoxy-4-quinolyl)oxy]phenyl}carbamate], for which the concentration for half-maximal inhibition (IC50) is 370 nM in assay [1] and less than 10 nM in assay [2].
As for `COc1cc2nccc(Oc3cc(C)c(NC(=O)Oc4c(OC)cccc4OC)cc3C)c2cc1OC` [Example 281, 2,6-Dimethoxyphenyl N-{4-[(6,7-dimethoxy-4-quinolyl)oxy]-2,5-dimethylphenyl}carbamate], the IC50 in assay [1] is 268 nM; in assay [2] it was greater than 100 nM. Also, the inhibition at 0.1 µM in assay [2] is 49%.
On to `COc1cc2nccc(Oc3ccc(NC(=O)Oc4c(OC)cccc4OC)c(C)c3C)c2cc1OC` [Example 282, 2,6-Dimethoxyphenyl N-{4-[(6,7-dimethoxy-4-quinolyl)oxy]-2,3-dimethylphenyl}carbamate], for which the IC50 in assay [1] was 48 nM; in assay [2], 34 nM.
As to `COc1cc2nccc(Oc3ccc(NC(=O)OCC4CCCCC4)cc3)c2cc1OC` [Example 283, Cyclohexylmethyl N-{4-[(6,7-dimethoxy-4-quinolyl)oxy]phenyl}carbamate], the IC50 was 121 nM in assay [1] and less than 10 nM in assay [2].
`COc1cc2nccc(Oc3cc(C)c(NC(=O)OCC4CCCCC4)cc3C)c2cc1OC` [Example 284, Cyclohexylmethyl N-{4-[(6,7-dimethoxy-4-quinolyl)oxy]-2,5-dimethylphenyl}carbamate]: the IC50 was 269 nM in assay [1] and less than 10 nM in assay [2].
As to `COc1cc2nccc(Oc3ccc(NC(=O)OCC4CCCCC4)c(C)c3C)c2cc1OC` [Example 285, Cyclohexylmethyl N-{4-[(6,7-dimethoxy-4-quinolyl)oxy]-2,3-dimethylphenyl}carbamate], the IC50 in assay [1] is 85 nM; in assay [2] it was less than 10 nM.
On to `COc1cc2nccc(Oc3ccc(NC(=O)OC4CCCCCC4)cc3)c2cc1OC` [Example 286, Cycloheptyl N-{4-[(6,7-dimethoxy-4-quinolyl)oxy]phenyl}carbamate], for which the IC50 in assay [1] is 54 nM; in assay [2], less than 10 nM.
The like results for `COc1cc2nccc(Oc3ccc(NC(=O)OC4CCCCCC4)c(C)c3C)c2cc1OC` [Example 288, Cycloheptyl N-{4-[(6,7-dimethoxy-4-quinolyl)oxy]-2,3-dimethylphenyl}carbamate] were, in that order, 162 nM and less than 10 nM.
As for `COc1cc2nccc(Oc3cc(C)c(NC(=O)Oc4ccccc4C)cc3C)c2cc1OC` [Example 289, 2-Methylphenyl N-{4-[(6,7-dimethoxy-4-quinolyl)oxy]-2,5-dimethylphenyl}carbamate], the IC50 in assay [1] was 328 nM; in assay [2], less than 10 nM.
On to `COc1cccc(OC(=O)Nc2cc(C)c(Oc3ccnc4cc(OC)c(OC)cc34)cc2C)c1` [Example 290, 3-Methoxyphenyl N-{4-[(6,7-dimethoxy-4-quinolyl)oxy]-2,5-dimethylphenyl}carbamate], for which the values for the IC50 in assay [1] and in assay [2] were 281 nM and 47 nM, respectively.
As for `COc1cccc(OC(=O)Nc2ccc(Oc3ccnc4cc(OC)c(OC)cc34)c(C)c2C)c1` [Example 291, 3-Methoxyphenyl N-{4-[(6,7-dimethoxy-4-quinolyl)oxy]-2,3-dimethylphenyl}carbamate], the results for the IC50 in assay [1] and in assay [2] were 124 nM and 26 nM, respectively.
`COc1cc2nccc(Oc3cc(C)c(NC(=O)OC4CCc5ccccc5C4)cc3C)c2cc1OC` (stereo not shown) [Example 292, 1,2,3,4-Tetrahydro-2-naphthalenyl N-{4-[(6,7-dimethoxy-4-quinolyl)oxy]-2,5-dimethylphenyl}carbamate]: the IC50 in assay [1] was determined as 262 nM; in assay [2], 14 nM.
Regarding `COc1cc2nccc(Oc3ccc(NC(=O)OC4CCc5ccccc5C4)c(C)c3C)c2cc1OC` (stereo not shown) [Example 293, 1,2,3,4-Tetrahydro-2-naphthalenyl N-{4-[(6,7-dimethoxy-4-quinolyl)oxy]-2,3-dimethylphenyl}carbamate], the IC50 was 145 nM in assay [1] and less than 10 nM in assay [2].
Regarding `COc1cc2nccc(Oc3ccc(NC(=O)Oc4ccc(-c5ccccc5)cc4)cc3)c2cc1OC` [Example 294, 4-Phenylphenyl N-{4-[(6,7-dimethoxy-4-quinolyl)oxy]phenyl}carbamate], the IC50 in assay [1] was 109 nM; in assay [2] it was 15 nM.
In the case of `COc1cc2nccc(Oc3cc(C)c(NC(=O)Oc4ccc(-c5ccccc5)cc4)cc3C)c2cc1OC` [Example 295, 4-Phenylphenyl N-{4-[(6,7-dimethoxy-4-quinolyl)oxy]-2,5-dimethylphenyl}carbamate], the IC50 in assay [1] was 178 nM. Moreover, in assay [2], the inhibition at 0.1 µM was determined as 45% and the IC50 is greater than 100 nM.
Turning to `COc1cc2nccc(Oc3ccc(NC(=O)Oc4ccc(-c5ccccc5)cc4)c(C)c3C)c2cc1OC` [Example 296, 4-Phenylphenyl N-{4-[(6,7-dimethoxy-4-quinolyl)oxy]-2,3-dimethylphenyl}carbamate], the values for the IC50 in assay [1] and in assay [2] were 109 nM and 61 nM, respectively.
Consider `COc1cc2nccc(Oc3ccc(NC(=O)OCCc4ccccc4)cc3)c2cc1OC` [Example 297, Phenethyl N-{4-[(6,7-dimethoxy-4-quinolyl)oxy]phenyl}carbamate], for which the IC50 is 41 nM in assay [1] and less than 10 nM in assay [2].
